Data as given in patent EP0474374A1, “Method for treatment of bone wasting diseases using a progestin” (ORTHO PHARMACEUTICAL CORPORATION, priority 1990, dated 1992).
“Also recorded” adds a separate entry of the source.

Tests used:
[1] = tested on: MC3T3-El osteoblast-line cells; assay: Osteoblast cell proliferation (3H-thymidine incorporation into DNA); type: cell-based, mouse; conditions: for OSTEOBLAST STIMULATION: ability to stimulate 3H-thymidine incorporation in MC3T3-El osteoblast-line cells, stimulation over control; for osteoblast proliferation and differentiation: summary statement in words, bone forming cells, cell line not named
Method: Only cells undergoing mitosis will synthesize new DNA and thus only these cells will incorporate the radiolabelled DNA specific nucleotide, thymidine. […] The ability of agents to increase osteoblast proliferation and differentiation can be predicted by their action on cultured osteoblast-line cells in vitro. In this test mouse (MC3T3-El), and human (TE-85) osteoblast-line cells were cultured in vitro and the effect of various progestins was tested on osteoblast cell proliferation. Osteoblast cell proliferation was determined by measuring the rate of DNA synthesis, which was quantified by measuring the rate of ³H-thymidine incorporation into DNA.
Following their placement into 96 well culture plates all the osteoblast-line cells, either the MC3T3-El or the TE-85 cell lines, were allowed an additional 24 hours preincubation period in media containing only 0.1% fetal bovine sera. The next day the test compounds were added and screened at concentrations ranging from 10⁻¹⁴ to 10⁻⁶ M depending on the particular study. Twenty hours later a 20 ul aliquot of media containing 0.4 uCi of ³H-thymidine was added to each culture well. The cells were then incubated for an additional 4 hours. The incubation was terminated by aspirating the media and washing with HBSS (Hank's Balanced Salt Solution). The cells were then treated with 100 ul of Trypsin-EDTA (Ethylene Diamine Tetra Acetic Acid) (0.5% trypsin and 5.3 mM EDTA) for 30 minutes at room temperature. The cells were then aspirated onto a glass fiber filter and washed with water. The radioactivity on the filters was quantified by liquid scintillation spectroscopy. The rate of ³H-thymidine incorporation into DNA is then utilized as an index of cell proliferation.
Mouse (MC3T3-El) osteoblast-line cells were cultured in vitro and the effect of various progestins on the ability of the cells to incorporate 3H-thymidine was determined. Osteoblast cell proliferation is determined by measuring the rate of DNA synthesis which was quantified by measuring the rate of ³H-thymidine incorporation into DNA. MC-3T3-El osteoblast-line cells were harvested from large culture flasks where they were allowed to grow to near confluency using Trypsin.

[2] = target: T1, rat prostate androgen cytosolic receptors (Rattus norvegicus, UniProt P15207); assay: Androgen receptor binding (competitive 3H-DHT displacement); conditions: 1 nM 3H-DHT, 24 hours at 4°C; mean + 1 S.E. of 4 determinations in duplicate
T1 construct: the supernatant was used as the cytosolic androgen receptor preparation; from tissue; host or cells: ventral prostate glands of castrated male rats (250-300 g); 105,000 g cytosol supernatant
T1 sequence (P15207 1-902): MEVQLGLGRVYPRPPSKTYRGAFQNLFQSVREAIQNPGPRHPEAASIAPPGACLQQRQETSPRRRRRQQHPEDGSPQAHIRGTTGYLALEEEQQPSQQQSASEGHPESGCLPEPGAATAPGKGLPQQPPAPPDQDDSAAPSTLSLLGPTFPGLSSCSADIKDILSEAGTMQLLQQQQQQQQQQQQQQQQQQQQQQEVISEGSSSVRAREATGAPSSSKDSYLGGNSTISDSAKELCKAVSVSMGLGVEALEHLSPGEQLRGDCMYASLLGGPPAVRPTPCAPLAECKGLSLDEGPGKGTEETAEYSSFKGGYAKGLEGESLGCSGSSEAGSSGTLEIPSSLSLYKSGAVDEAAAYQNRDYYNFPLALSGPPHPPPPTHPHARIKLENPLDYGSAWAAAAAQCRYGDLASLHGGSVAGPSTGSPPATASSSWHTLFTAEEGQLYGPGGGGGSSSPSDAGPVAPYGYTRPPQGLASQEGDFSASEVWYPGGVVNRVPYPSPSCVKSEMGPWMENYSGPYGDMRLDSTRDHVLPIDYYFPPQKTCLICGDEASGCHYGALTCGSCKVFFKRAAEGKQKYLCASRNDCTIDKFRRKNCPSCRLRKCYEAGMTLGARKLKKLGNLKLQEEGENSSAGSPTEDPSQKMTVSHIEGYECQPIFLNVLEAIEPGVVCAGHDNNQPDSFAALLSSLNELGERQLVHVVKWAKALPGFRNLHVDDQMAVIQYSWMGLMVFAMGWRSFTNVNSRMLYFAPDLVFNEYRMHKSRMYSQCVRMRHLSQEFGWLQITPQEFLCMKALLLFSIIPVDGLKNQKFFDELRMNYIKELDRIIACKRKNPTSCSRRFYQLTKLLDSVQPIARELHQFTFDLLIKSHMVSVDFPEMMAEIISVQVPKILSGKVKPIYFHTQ
Method: The relative binding affinity of other steroids, such as progestins, for androgen receptors can be determined by evaluating their ability to displace ³H-DHT from these rat ventral prostate receptors in vitro. Cytosolic androgen receptors were prepared from ventral prostate glands isolated from castrated male rats (250-300 g). Ventral prostate glands were homogenized and centrifuged at 105,000 g for 60 min at 4°C and the supernatant was used as the cytosolic androgen receptor preparation. […] The relative degree of receptor binding of the test progestin was expressed as percent inhibition of total ³H-DHT binding.
The relative binding affinity of other steroids, such as progestins, for androgen receptors is determined by evaluating their ability to displace ³H-DHT from these rat ventral prostate receptors in vitro. Cytosolic androgen receptors were prepared from ventral prostate glands isolated from castrate male rats (250-300 g). Ventral prostate glands were homogenized and centrifuged at 105,000 g for 60 min at 4°C and the supernatant used as the cytosolic androgen receptor preparation. […] The relative degree of receptor binding of the test progestin was expressed as percent inhibition of total ³H-DHT binding.
Relative androgen receptor binding activity was analyzed in competitive binding assays utilizing 3H-DHT binding for rat prostate androgen cytosolic receptors.

[3] = tested on: T47D breast carcinoma-line cells; assay: Breast carcinoma cell proliferation (3H-thymidine incorporation into DNA); type: cell-based, human; conditions: 0.00001 to 100 nM, result in words
Method: T47D breast (Human) carcinoma-line cells (American Type Tissue Culture Collection #HTB 133, Rockville, MD) were harvested using Trypsin from large (175 cm²) culture flasks where they were allowed to grow to near confluency. The cells were plated into 96 well culture plates, 1600 cells in 100 ul per well in DMEM with 25 mM Hepes buffer, L-glutamine (584 mg/l); D-glucose (4.5 gm/l) supplemented with 10% fetal bovine sera; penicillin (100 units/ml) and streptomycin (100 mcg/ml); sodium pyruvate (10 uM final concentration). The cells were allowed to plate overnight in DMEM containing 10% fetal bovine sera at 37°C in an atmosphere of 5% CO₂/95% air. Following their placement into 96 well culture plates, the cells were incubated for an additional 24 hour preincubation period in media containing only 0.1% fetal bovine sera. The next day the test compounds were added and screened at concentrations ranging from 10⁻¹⁴ to 10⁻⁶ M depending on the particular study. Twenty hours later a 20 ul aliquot of media containing 0.4 uCi of ³H-thymidine was added to each culture well. The cells were then incubated for an additional 4 hours. […] The radioactivity on the filters was quantified by liquid scintillation spectroscopy. […]
MC3T3-El cells were cultured as described in Example #1. […] The radioactivity on the filters was quantified by liquid scintillation spectroscopy. […]

[4] = tested on: MC3T3-El osteoblast-line cells; assay: Osteoblast cell number by Coulter counting; type: cell-based, mouse; conditions: 0.01 to 100 nM, 5 days, no fetal bovine sera; result in words
Method: In this study MC3T3-El osteoblast-line cells were cultured into 6 well plates at a density of 50,000 cells/well in 10% fetal bovine sera. The following day media was changed to that containing no fetal bovine sera . The next day some of the cells were harvested by trypsin and counted using a Coulter cell counter. This count was considered as Day 0. […] After 5 days all of the cells were harvested and counted using a Coulter cell counter.
Figure 2. […] Each striped bar represents the mean and the vertical line l S.E.M. of 6 determinations.

[5] = tested on: TE-85 human osteoblast-line cells; assay: Osteoblast cell proliferation (3H-thymidine incorporation into DNA); type: cell-based; conditions: TE-85 cells, 0.0001 to 100 nM; result in words
Excerpt: The action of select progestins to stimulate osteoblast proliferation can be measured in culture by estimating the rate of DNA synthesis by the rate of 3H-thymidine incorporation into DNA. Only cells undergoing mitosis will synthesize new DNA and thus only these cells will incorporate the radiolabelled DNA specific nucleotide, thymidine. The stimulation of the proliferation and differentiation of bone-forming cells, osteoblasts, is a prerequisite for an increase in bone formation and bone mass. The ability of agents to increase osteoblast proliferation and differentiation can be predicted by their action on cultured osteoblast-line cells in vitro. […] Osteoblast cell proliferation was determined by measuring the rate of DNA synthesis, which was quantified by measuring the rate of ³H-thymidine incorporation into DNA. […]
MC-3T3-El (cloned by Sudo and Coworkers, Koriyama Japan) and TE85 (American Type Tissue Culture Collection #CRL 1543, Rockville, MD) osteoblast-line cells were harvested from large culture flasks (175 cm²) where they were allowed to grow to near confluency using Trypsin. […] The radioactivity on the filters was quantified by liquid scintillation spectroscopy. […]
Osteoblast growth was determined by me: ring the rate of 3H-thymidine incorporation into DNA as in Example #1. […]

[6] = tested on: TE-85 human osteoblast-line cells; assay: Alkaline phosphatase secretion into the media (osteoblast differentiation); type: cell-based
Method: Osteoblast growth was determined by me: ring the rate of 3H-thymidine incorporation into DNA as in Example #1. Osteoblast differention was estimated by measuring the secretion of skeletal alkaline phosphatase into the media. Skeletal alkaline phosphatase is considered a reliable marker of osteoblast differention and activity. TE-85 human osteoblast-line cells were cultured as described previously in Example #1. […] 3H-Thymidine incorporation into the osteoblast cell DNA and alkaline phosphatase secreted into the media was measured simultaneously (Figure 3 and 4).

Compound	OSTEOBLAST STIMULATION [1]	osteoblast proliferation and differentiation [1]	also measured
C#C[C@]1(OC(C)=O)CC[C@H]2[C@@H]3CCC4=CC(=NO)CC[C@@H]4[C@H]3CC[C@@]21CC (mixture of isomers) [NORGESTIMATE]	NOT ACTIVE	do not stimulate	
C#C[C@]1(O)CC[C@H]2[C@@H]3CCC4=CC(=O)CC[C@@H]4[C@H]3C(=C)C[C@@]21CC [3-KETO-DESOGESTREL]	NOT ACTIVE		
C[C@]12CC[C@H]3[C@@H](CCC4=CC(=O)CC[C@@H]43)[C@@H]1CC[C@@H]2O [19-nortestosterone]		do not stimulate	
C[C@]12CCC(=O)C[C@@H]1CC[C@@H]1[C@@H]2CC[C@]2(C)[C@@H](O)CC[C@@H]12 [DIHYDROTESTOSTERONE, 5-alpha-dihydrotestosterone]	NOT ACTIVE		
C#C[C@]1(O)C=C[C@H]2[C@@H]3CCC4=CC(=O)CC[C@@H]4[C@H]3CC[C@@]21CC [GESTODENE]	NOT ACTIVE	do not stimulate	IC50 [2]: 13 nM
C#C[C@]1(O)CC[C@H]2[C@@H]3CCC4=CC(=O)CC[C@@H]4[C@H]3CC[C@@]21CC [LEVONORGESTREL]	NOT ACTIVE		
C#C[C@]1(O)CC[C@H]2[C@@H]3CCC4=CC(=O)CC[C@@H]4[C@H]3CC[C@@]21C [NORETHINDRONE]	ACTIVE	significantly and reproducibly stimulate	osteoblast proliferation ([1]; MC3T3-El cells, result in words): does possess osteoblast proliferative action; also recorded: dose-related increase; proliferation of breast cell line [3]: dose-related increase; osteoblast number [4]: induced an increase in osteoblast number; 3H-thymidine incorporation [5]: increased; secretion of alkaline phosphatase ([6]; TE-85 cells, 0.0001 to 100 nM, result in words): increased; cellular alkaline phosphatase activity in osteoblast-line cells ([6]; summary statement in words, cell line not named): stimulate
CC(=O)[C@H]1CC[C@H]2[C@@H]3CCC4=CC(=O)CC[C@]4(C)[C@H]3CC[C@]12C [PROGESTERONE]	ACTIVE	significantly and reproducibly stimulate	
CC(=O)O[C@]1(C(C)=O)CC[C@H]2[C@@H]3C=C(Cl)C4=CC(=O)CC[C@]4(C)[C@H]3CC[C@@]21C [chlormadionone acetate]		significantly and reproducibly stimulate	
CC(=O)O[C@]1(C(C)=O)CC[C@H]2[C@@H]3C=C(Cl)C4=CC(=O)[C@@H]5C[C@@H]5[C@]4(C)[C@H]3CC[C@@]21C [cyproterone acetate]		do not stimulate	
C#C[C@]1(O)CC[C@H]2[C@@H]3CCC4=CCCC[C@@H]4[C@H]3C(=C)C[C@@]21CC [desogestrel]		do not stimulate	
CC(=O)O[C@]1(C(C)=O)CC[C@H]2[C@@H]3C[C@H](C)C4=CC(=O)CC[C@]4(C)[C@H]3CC[C@@]21C [medroxyprogesterone acetate]		significantly and reproducibly stimulate	
CC(=O)O[C@]1(C(C)=O)CC[C@H]2[C@@H]3C=C(C)C4=CC(=O)CC[C@]4(C)[C@H]3CC[C@@]21C [megestrol acetate]		significantly and reproducibly stimulate	
C#C[C@]1(OC(C)=O)CC[C@H]2[C@@H]3CCC4=CC(=O)CC[C@@H]4[C@H]3CC[C@@]21C [norethindrone acetate]		significantly and reproducibly stimulate	
C#C[C@]1(O)CC[C@H]2[C@@H]3CCC4=C(CCC(=O)C4)[C@H]3CC[C@@]21C [norethynodrel]		significantly and reproducibly stimulate	
